# Test results taken from US12139471B2, “NLRP3 inflammasome inhibitors” (Novartis AG, priority 2019, dated 2024).
# Structures can show the parent of a compound that is named as a salt.
# Test system: NF-kB-dependent TNF-α secretion
# Assay: TNF-α secretion assay (counter screen, THP-1 cells, HTRF)
# Assay type: cell-based
# Settings: undifferentiated THP-1 cells, Pam3CSK4-stimulated, 3 hours, TNF-α by HTRF
# Method: Monocytic THP-1 cells were maintained according to providers' instructions in RPMI media as described above. […] Experimental compounds were prepared and added as described above. TNF-α secretion was triggered by the addition of either 1 μg/mL LPS (Sigma, #L4391) or 100 ng/mL Pam3CSK4 (Invivogen, #tlri-pms) depending on the experiment, and cells were incubated for 3 hours. 10 μL supernatant was removed, and TNF-α levels were monitored using an HTRF assay (CisBio, #62TNFPEC) according to manufacturers' instructions. Viability was monitored as described above.
row,Compound,IC50 [nM]
1,(3R)-3-((6-(2-Hydroxy-6-methyl-4-(trifluoromethyl)phenyl)-4-methylpyridazin-3-ylamino)-1-methylpiperidine 1-oxide TFA-salt [Ex 104],> 100000

# Molecular target: T1, NLRP3 inflammasome (Homo sapiens, UniProt Q96P20)
# T1 construct: host or cells: THP-1 cells, PMA-differentiated
# T1 sequence (Q96P20 whole entry): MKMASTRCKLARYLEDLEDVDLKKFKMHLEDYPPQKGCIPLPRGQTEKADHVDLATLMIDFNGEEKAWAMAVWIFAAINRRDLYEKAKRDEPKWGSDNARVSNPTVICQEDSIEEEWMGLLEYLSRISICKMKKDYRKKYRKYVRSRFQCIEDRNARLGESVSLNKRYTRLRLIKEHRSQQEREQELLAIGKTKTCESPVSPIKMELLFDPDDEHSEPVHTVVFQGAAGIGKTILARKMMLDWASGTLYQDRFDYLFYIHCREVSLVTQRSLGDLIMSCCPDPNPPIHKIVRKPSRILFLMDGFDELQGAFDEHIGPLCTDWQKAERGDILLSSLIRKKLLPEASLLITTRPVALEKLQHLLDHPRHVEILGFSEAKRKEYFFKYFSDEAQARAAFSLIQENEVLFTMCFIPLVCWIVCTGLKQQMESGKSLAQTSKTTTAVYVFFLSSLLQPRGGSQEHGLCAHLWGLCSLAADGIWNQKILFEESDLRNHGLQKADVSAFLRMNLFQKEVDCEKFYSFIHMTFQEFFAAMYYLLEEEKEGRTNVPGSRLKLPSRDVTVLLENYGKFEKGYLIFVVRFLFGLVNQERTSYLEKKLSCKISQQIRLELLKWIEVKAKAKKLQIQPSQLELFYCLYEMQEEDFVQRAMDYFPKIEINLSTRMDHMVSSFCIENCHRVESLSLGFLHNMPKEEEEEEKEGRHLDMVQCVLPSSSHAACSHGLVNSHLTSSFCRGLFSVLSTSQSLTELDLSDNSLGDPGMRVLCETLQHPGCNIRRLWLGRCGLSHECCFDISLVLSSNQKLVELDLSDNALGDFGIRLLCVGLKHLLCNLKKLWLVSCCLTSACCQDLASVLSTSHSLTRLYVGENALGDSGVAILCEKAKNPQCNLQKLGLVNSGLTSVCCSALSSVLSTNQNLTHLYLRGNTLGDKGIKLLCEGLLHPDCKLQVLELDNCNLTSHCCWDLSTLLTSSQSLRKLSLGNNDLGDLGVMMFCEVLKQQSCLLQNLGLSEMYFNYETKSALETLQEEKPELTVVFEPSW
# Assay: IL-1β secretion assay (nigericin-activated, PMA-differentiated THP-1 cells, HTRF)
# Assay type: cell-based
# Settings: PMA-differentiated THP-1 cells; compound 1 hour, then 15 μM nigericin, 3 hours; IL-1β by HTRF; read-out: IL-1β IC50
# Method: 10 μL supernatant was removed, and IL-1β levels were monitored using an HTRF assay (CisBio, #62IL1PEC) according to manufacturers' instructions. Viability and pyroptosis was monitored with the addition of PrestoBlue cell viability reagent (Life Technologies, #A13261) directly to the cell culture plate.
# IC50 values were calculated from the plot of percentage of inhibition versus the inhibitor concentration by a logistics fit according to: y=A2+(A1−A2)/(1+(x/IC50)^p) where y is the %-inhibition at the inhibitor concentration, x. A1 is the lowest inhibition value, i.e. 0%, and A2 the maximum inhibition value, i.e. 100%. The exponent, p, is the Hill coefficient. The curve fitting was conducted with an internally developed software suite.
# NLRP3-dependent IL-1β secretion was stimulated in PMA-differentiated THP-1 cells by the addition of nigericin, and cytokines were measured in the […] after 3 hours. As discussed above, activation of the NLRP3 inflammasome requires both an NF-kB-dependent priming step and the addition of a NLRP3 activator.
row,Compound,IC50 [nM]
1,"Cc1cc(C(F)(F)F)cc(O)c1-c1ccc(N[C@H]2CCC[C@H](O)C2)nn1 [Ex 57, 2-(6-(((1S,3S)-3-Hydroxycyclohexyl)amino)pyridazin-3-yl)-3-methyl-5-(trifluoromethyl)phenol]",224
2,"Cc1cc(C(F)(F)F)cc(O)c1-c1ccc(N[C@@H]2CCC[C@@H](O)C2)nn1 [Ex 58, 2-(6-(((1R,3R)-3-Hydroxycyclohexyl)amino)pyridazin-3-yl)-3-methyl-5-(trifluoromethyl)phenol]",58.4
3,"Cc1cc(C(F)(F)F)cc(O)c1-c1ccc(N[C@@H]2CCCN(C)C2=O)nn1 [Ex 59, (R)-3-((6-(2-Hydroxy-6-methyl-4-(trifluoromethyl)phenyl)pyridazin-3-yl)amino)-1-methylpiperidin-2-one]",35.9
4,"Cc1cc(C(F)(F)F)cc(O)c1-c1ccc(NC[C@@H](F)C(C)(C)O)nn1 [Ex 60, (R)-2-(6-((2-Fluoro-3-hydroxy-3-methylbutyl)amino)pyridazin-3-yl)-3-methyl-5-(trifluoromethyl)phenol]",139
5,"Cc1cc(C(F)(F)F)cc(O)c1-c1ccc(N[C@@H]2CCC(=O)NC2)nn1 [Ex 61, (R)-5-((6-(2-Hydroxy-6-methyl-4-(trifluoromethyl)phenyl)pyridazin-3-yl)amino)piperidin-2-one]",65.8
6,"C[C@]1(O)C[C@@H](Nc2cc(C(F)(F)F)c(-c3ccc(C(F)(F)F)cc3O)nn2)C1 [Ex 66, 2-(6-(((cis)-3-Hydroxy-3-methylcyclobutyl)amino)-4-(trifluoromethyl)pyridazin-3-yl)-5-(trifluoromethyl)phenol]",187
7,"Cc1cc(C(F)(F)F)cc(O)c1-c1ccc(N[C@H]2C[C@](O)(C(F)(F)F)C2)nn1 [Ex 67, 2-(6-(((cis)-3-Hydroxy-3-(trifluoromethyl)cyclobutyl)amino)pyridazin-3-yl)-3-methyl-5-(trifluoromethyl)phenol]",40.1
8,"Cc1cc(N[C@H]2C[C@@](C)(O)C2)nnc1-c1ccc(Cl)cc1O [Ex 68, 5-Chloro-2-(6-(((cis)-3-hydroxy-3-methylcyclobutyl)amino)-4-methylpyridazin-3-yl)phenol]",89.3
9,"C[C@]1(O)C[C@@H](Nc2cc(C(F)(F)F)c(-c3ccc(Cl)cc3O)nn2)C1 [Ex 69, 5-Chloro-2-(6-(((cis)-3-hydroxy-3-methylcyclobutyl)amino)-4-(trifluoromethyl)pyridazin-3-yl)phenol]",431
10,"Cc1cc(-c2c(C)cc(C(F)(F)F)cc2O)nnc1NCC(C)(C)O [Ex 72, 2-(6-((2-Hydroxy-2-methylpropyl)amino)-5-methylpyridazin-3-yl)-3-methyl-5-(trifluoromethyl)phenol]",44.9
11,"Cc1cc(NCC(C)(C)O)nnc1-c1c(C)cc(C(F)(F)F)cc1O [Ex 73, 2-(6-((2-Hydroxy-2-methylpropyl)amino)-4-methylpyridazin-3-yl)-3-methyl-5-(trifluoromethyl)phenol]",154
12,"Cc1cc(C(F)(F)F)cc(O)c1-c1ccc(NC[C@@H]2C[C@H](F)CN2)nn1 [Ex 75, 2-(6-((((2S,4S)-4-Fluoropyrrolidin-2-yl)methyl)amino)pyridazin-3-yl)-3-methyl-5-(trifluoromethyl)phenol]",18.3
13,"Cc1cc(C(F)(F)F)cc(O)c1-c1ccc(NC[C@@H]2C[C@@H](F)CN2)nn1 [Ex 76, 2-(6-((((2S,4R)-4-Fluoropyrrolidin-2-yl)methyl)amino)pyridazin-3-yl)-3-methyl-5-(trifluoromethyl)phenol]",89.7
14,"Cc1cc(C(F)(F)F)cc(O)c1-c1ccc(NC[C@](C)(O)C(F)(F)F)nn1 [Ex 78, (S)-3-Methyl-2-(6-((3,3,3-trifluoro-2-hydroxy-2-methylpropyl)amino)pyridazin-3-yl)-5-(trifluoromethyl)phenol HCl-salt]",198
15,"Cc1cc(C(F)(F)F)cc(O)c1-c1ccc(NC(C)(C)CO)nn1 [Ex 79, 2-(6-((1-Hydroxy-2-methylpropan-2-yl)amino)pyridazin-3-yl)-3-methyl-5-(trifluoromethyl)phenol]",370
16,"Cc1cc(N[C@H]2C[C@@](C)(O)C2)nnc1-c1ccc(OC(F)(F)F)cc1O [Ex 81, 2-(6-(((cis)-3-Hydroxy-3-methylcyclobutyl)amino)-4-methylpyridazin-3-yl)-5-(trifluoromethoxy)phenol]",130
17,"Cc1cc(C(F)(F)F)cc(O)c1-c1ccc(NCC2(O)CCCC2)nn1 [Ex 98, 2-(6-(((1-Hydroxycyclopentyl)methyl)amino)pyridazin-3-yl)-3-methyl-5-(trifluoromethyl)phenol]",115
18,"Cc1cc(-c2c(C)cc(C(F)(F)F)cc2O)nnc1NC1CCC(=O)N(C)C1 (stereo not shown) [Ex 99, 5-((6-(2-Hydroxy-6-methyl-4-(trifluoromethyl)phenyl)-4-methylpyridazin-3-yl)amino)-1-methylpiperidin-2-one]",75
19,"Cc1cc(-c2c(C)cc(C(F)(F)F)cc2O)nnc1N[C@@H]1CCCN(C)C1=O [Ex 102, (R)-3-((6-(2-Hydroxy-6-methyl-4-(trifluoromethyl)phenyl)-4-methylpyridazin-3-yl)amino)-1-methylpiperidin-2-one]",49
20,"Cc1cc(C)c(-c2ccc(NCCc3ccc(S(N)(=O)=O)cc3)nn2)c(O)c1 [Ex 103, 4-(2-((6-(2-Hydroxy-4,6-dimethylphenyl)pyridazin-3-yl)amino)ethyl)benzenesulfonamide]",136
21,(3R)-3-((6-(2-Hydroxy-6-methyl-4-(trifluoromethyl)phenyl)-4-methylpyridazin-3-ylamino)-1-methylpiperidine 1-oxide TFA-salt [Ex 104],59
